Experimental data as given in US20230167073A1 (Teijin Pharma Limited, priority 2020, published 2023).

Molecular target: T1, Human TRPC6 (Homo sapiens, UniProt Q9Y210)
T1 construct: expressed in transfected cells
T1 sequence (Q9Y210 1-931): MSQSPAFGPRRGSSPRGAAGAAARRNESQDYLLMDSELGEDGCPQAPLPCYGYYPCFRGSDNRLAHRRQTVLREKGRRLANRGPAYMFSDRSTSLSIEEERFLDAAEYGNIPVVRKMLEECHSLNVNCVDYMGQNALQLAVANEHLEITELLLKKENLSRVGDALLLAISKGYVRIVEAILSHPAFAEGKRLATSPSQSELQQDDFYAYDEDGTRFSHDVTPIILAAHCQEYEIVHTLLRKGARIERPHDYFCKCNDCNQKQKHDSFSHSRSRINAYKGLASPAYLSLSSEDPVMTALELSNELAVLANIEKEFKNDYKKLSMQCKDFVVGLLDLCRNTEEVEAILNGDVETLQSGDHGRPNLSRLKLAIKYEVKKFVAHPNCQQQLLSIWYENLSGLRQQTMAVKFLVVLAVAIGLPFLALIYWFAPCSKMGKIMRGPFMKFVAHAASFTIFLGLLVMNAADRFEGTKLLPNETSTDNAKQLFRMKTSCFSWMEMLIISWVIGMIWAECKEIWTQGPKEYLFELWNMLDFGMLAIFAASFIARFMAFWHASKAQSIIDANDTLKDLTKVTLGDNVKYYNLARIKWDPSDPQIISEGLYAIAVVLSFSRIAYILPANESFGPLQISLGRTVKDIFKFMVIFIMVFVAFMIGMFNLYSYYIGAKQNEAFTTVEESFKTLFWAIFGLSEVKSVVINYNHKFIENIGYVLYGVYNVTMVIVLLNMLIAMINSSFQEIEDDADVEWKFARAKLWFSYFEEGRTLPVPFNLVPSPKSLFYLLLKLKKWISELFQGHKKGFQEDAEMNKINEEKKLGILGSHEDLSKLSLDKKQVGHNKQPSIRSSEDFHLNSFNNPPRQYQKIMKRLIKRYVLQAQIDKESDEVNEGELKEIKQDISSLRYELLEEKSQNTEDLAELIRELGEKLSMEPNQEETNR
Experiment: Evaluation of TRPC6 channel inhibitory activity (1), FLIPR Calcium 5 Assay Kit, OAG stimulation (Compound Nos. 1-1293)
Format: cell-based
Conditions: Human TRPC6 stably-expressing cells, OAG 30 μM, FLIPR Calcium 5 Assay Kit; read-out: Inhibitory activity (pIC50 class) (converted)
Method in brief: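 TRPC6 (human) stable cells, 24 h culture; Ca5 no-wash dye + probenecid 30 min; cpd 20 min; OAG 30 μM final; ΔF (pre-cpd min to post-OAG max); 0%/100% = no cpd / no cpd + no OAG; 4PL → pIC50, binned +/++/+++.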

| Compound | IC50 |
| --- | --- |
| Cc1sc(N2CCOCC2)nc1C(=O)c1cc(C#N)ccc1-c1ccc(CN)cn1 [compound 1067, 4-[5-(aminomethyl)pyridin-2-yl]-3-(5-methyl-2-morpholin-4-yl-1,3-thiazole-4-carbonyl)benzonitrile] | > 1000 nM |
| Cn1nc(C2CC2)cc1Oc1cc(C#N)ccc1-c1ncc([C@@H](O)CN)cn1 [compound 372, 4-[5-[(1R)-2-amino-1-hydroxyethyl]pyrimidin-2-yl]-3-(5-cyclopropyl-2-methylpyrazol-3-yl)oxybenzonitrile] | < 10 nM |
| Cc1nc(-c2cncc(F)c2)cn1Cc1cc(C#N)ccc1-c1ncc(CN)cn1 [compound 1192, 4-[5-(aminomethyl)pyrimidin-2-yl]-3-[[4-(5-fluoropyridin-3-yl)-2-methylimidazol-1-yl]methyl]benzonitrile] | > 1000 nM |
| Cc1cc(Oc2cc(C#N)ccc2-c2ccc(CCN)cn2)cc(N2CCOCC2)n1 [Compound 173, 4-[5-(2-aminoethyl)pyridin-2-yl]-3-(2-methyl-6-morpholin-4-ylpyridin-4-yl)oxybenzonitrile] | < 10 nM |
| Cc1nc(Oc2cc(C#N)ccc2-c2ccc(N3CCN(C)CC3)cc2)cc(N2CCOCC2)n1 [Compound 10, 3-(2-methyl-6-morpholin-4-ylpyrimidin-4-yl)oxy-4-[4-(4-methylpiperazin-1-yl)phenyl]benzonitrile] | > 1000 nM |
| Cn1nc(N2CCCCC2)cc1C(=O)c1cc(C#N)ccc1-c1ncc(CN)cn1 [compound 1063, 4-[5-(aminomethyl)pyrimidin-2-yl]-3-(2-methyl-5-piperidin-1-ylpyrazole-3-carbonyl)benzonitrile] | < 10 nM |
| CCN(CC)c1cc(Cc2cc(C#N)ccc2-c2ncc(CCN)cn2)n(C)n1 [compound 1207, 4-[5-(2-aminoethyl)pyrimidin-2-yl]-3-[[5-(diethylamino)-2-methylpyrazol-3-yl]methyl]benzonitrile] | < 10 nM |
| NCCc1cnc(-c2ccc(F)cc2Oc2cnn(CC(F)F)c2)nc1 [compound 1005, 2-[2-[2-[1-(2,2-difluoroethyl)pyrazol-4-yl]oxy-4-fluorophenyl]pyrimidin-5-yl]ethanamine] | > 1000 nM |
| COCCN(C)c1cc(Oc2cc(C#N)ccc2-c2ccc(CCN)cn2)cc(C)n1 [compound 459, 4-[5-(2-aminoethyl)pyridin-2-yl]-3-[2-[2-methoxyethyl(methyl)amino]-6-methylpyridin-4-yl]oxybenzonitrile] | < 10 nM |
| Cc1ncc(N2CCOCC2)cc1Oc1cc(C#N)ccc1-c1ncc(CCN)cn1 [compound 919, 4-[5-(2-aminoethyl)pyrimidin-2-yl]-3-(2-methyl-5-morpholin-4-ylpyridin-3-yl)oxybenzonitrile] | 10 to 1000 nM |
| N#Cc1ccc(-c2ncc(CCN)cn2)c(C(=O)c2cnc(C(F)(F)F)s2)c1 [compound 1039, 4-[5-(2-aminoethyl)pyrimidin-2-yl]-3-[2-(trifluoromethyl)-1,3-thiazole-5-carbonyl]benzonitrile] | 10 to 1000 nM |
| Cn1nc(C2CCC2)cc1Oc1cc(C#N)ccc1-c1ncc(CCN)cn1 [Compound 272, 4-[5-(2-aminoethyl)pyrimidin-2-yl]-3-(5-cyclobutyl-2-methylpyrazol-3-yl)oxybenzonitrile] | < 10 nM |
| Cc1nc(Sc2cc(C#N)ccc2-n2cc(CCN)cn2)cc(N2CCCC2)n1 [compound 1253, 4-[4-(2-aminoethyl)pyrazol-1-yl]-3-(2-methyl-6-pyrrolidin-1-ylpyrimidin-4-yl)sulfanylbenzonitrile] | 10 to 1000 nM |
| CCN(CC)c1cc(Oc2cc(C#N)ccc2-c2ncc(CCN)cn2)n(C)n1 [compound 656, 4-[5-(2-aminoethyl)pyrimidin-2-yl]-3-[5-(diethylamino)-2-methylpyrazol-3-yl]oxybenzonitrile] | < 10 nM |
| CCN(CC(F)F)c1cc(Oc2cc(C#N)ccc2-c2ncc(CCN)cn2)n(C)n1 [Compound No. 875, 4-[5-(2-Aminoethyl)pyrimidin-2-yl]-3-[5-[2,2-difluoroethyl(ethyl)amino]-2-methylpyrazol-3-yl]oxybenzonitrile] | < 10 nM |
| Cc1cc(Oc2cc(C#N)ccc2-c2ccc(CN)cn2)n(C)n1 [compound 323, 4-[5-(aminomethyl)pyridin-2-yl]-3-(2,5-dimethylpyrazol-3-yl)oxybenzonitrile] | 10 to 1000 nM |

| Compound | IC50 |
| --- | --- |
| CCc1nn(CC(C)C)cc1Oc1cc(C#N)ccc1-c1ncc(CCN)cn1 [compound 953, 4-[5-(2-aminoethyl)pyrimidin-2-yl]-3-[3-ethyl-1-(2-methylpropyl)pyrazol-4-yl]oxybenzonitrile] | < 10 nM |
| CN(C)c1cc(Oc2cc(C#N)ccc2-c2ncc([C@@H](F)CN)cn2)n(C)n1 [compound 906, 4-[5-[(1R)-2-amino-1-fluoroethyl]pyrimidin-2-yl]-3-[5-(dimethylamino)-2-methylpyrazol-3-yl]oxybenzonitrile] | < 10 nM |
| Cn1nc(C2CC2)cc1Oc1cc(C#N)ccc1-c1ncc(C(N)CO)cn1 (stereo not shown) [compound 420, 4-[5-(1-amino-2-hydroxyethyl)pyrimidin-2-yl]-3-(5-cyclopropyl-2-methylpyrazol-3-yl)oxybenzonitrile] | 10 to 1000 nM |
| Cc1nc(C(F)F)cn1Cc1cc(C#N)ccc1-c1ncc(CCN)cn1 [compound 1176, 4-[5-(2-aminoethyl)pyrimidin-2-yl]-3-[[4-(difluoromethyl)-2-methylimidazol-1-yl]methyl]benzonitrile] | 10 to 1000 nM |
| Cc1nc(Oc2cc(C#N)ccc2-c2ncc(CN)cn2)cc(N2C[C@@H](C)O[C@@H](C)C2)n1 [compound 709, 4-[5-(aminomethyl)pyrimidin-2-yl]-3-[6-[(2R,6S)-2,6-dimethylmorpholin-4-yl]-2-methylpyrimidin-4-yl]oxybenzonitrile] | 10 to 1000 nM |
| Cn1nc2c(c1Oc1cc(C#N)ccc1-c1ncc(CN)cn1)CCCC2 [compound 684, 4-[5-(aminomethyl)pyrimidin-2-yl]-3-[(2-methyl-4,5.6,7-tetrahydroindazol-3-yl)oxy]benzonitrile] | > 1000 nM |
| Cc1ccnc(-c2cc(Oc3cc(C#N)ccc3-c3ncc(CN)cn3)n(C)n2)c1 [compound 652, 4-[5-(aminomethyl)pyrimidin-2-yl]-3-[2-methyl-5-(4-methylpyridin-2-yl)pyrazol-3-yl]oxybenzonitrile] | < 10 nM |
| Cc1cc(Oc2cc(C#N)ccc2-c2ncc(CCN)cn2)cc(OCC2CCO2)n1 (stereo not shown) [compound 473, 4-[5-(2-aminoethyl)pyrimidin-2-yl]-3-[2-methyl-6-(oxetan-2-ylmethoxy)pyridin-4-yl]oxybenzonitrile] | 10 to 1000 nM |
| COCCCNCCc1ccc(-c2ccc(C#N)cc2Oc2cc(N3CCOCC3)nc(C)n2)cc1 [Compound 57, 4-[4-[2-(3-methoxypropylamino)ethyl]phenyl]-3-(2-methyl-6-morpholin-4-ylpyrimidin-4-yl)oxybenzonitrile] | > 1000 nM |
| Cc1cc(Oc2cc(C#N)ccc2-c2ncc(CCN)cn2)cc(C2CC2)n1 [compound 315, 4-[5-(2-aminoethyl)pyrimidin-2-yl]-3-(2-cyclopropyl-6-methylpyridin-4-yl)oxybenzonitrile] | < 10 nM |
| N#Cc1ccc(-c2ccc(CCN)cc2)c(Cn2cnc(-c3ccccc3)c2)c1 [compound 1111, 4-[4-(2-aminoethyl)phenyl]-3-[(4-phenylimidazol-1-yl)methyl]benzonitrile] | 10 to 1000 nM |
| COCCN(C)c1cc(Oc2cc(C#N)ccc2-c2ncc(CCN)cn2)cc(C)n1 [compound 458, 4-[5-(2-aminoethyl)pyrimidin-2-yl]-3-[2-[2-methoxyethyl(methyl)amino]-6-methylpyridin-4-yl]oxybenzonitrile] | < 10 nM |
| N#Cc1ccc(-c2ccc(CN)cn2)c(C(=O)c2nnc(N3CCOCC3)o2)c1 [compound 1089, 4-[5-(aminomethyl)pyridin-2-yl]-3-(5-morpholin-4-yl-1,3,4-oxadiazole-2-carbonyl)benzonitrile] | 10 to 1000 nM |
| Cn1nc(C2CC2)cc1Oc1cc(C#N)ccc1-c1ncc(NCCN)cn1 [compound 432, 4-[5-(2-aminoethylamino)pyrimidin-2-yl]-3-(5-cyclopropyl-2-methylpyrazol-3-yl)oxybenzonitrile] | < 10 nM |
| Cn1nc(C2CC2)cc1Oc1cc(C#N)ccc1-c1ncc(N)cn1 [compound 417, 4-(5-aminopyrimidin-2-yl)-3-(5-cyclopropyl-2-methylpyrazol-3-yl)oxybenzonitrile] | > 1000 nM |
